Measurements published in PubChem BioAssay (NCI).
“And” between values parts separate entries of the source, which are not always exact repeats. Equal values may be shown once.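 These data come from cells grown in 96-well plates and exposed to compound for 48 hours at five concentrations. Abbreviation: GI50, concentration required for 50% inhibition of growth. TGI: concentration producing complete growth inhibition.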

Key:
Test in all cases: DTP human tumour cell line panel, 48 h
RPMI-8226 leukemia = system: RPMI-8226 leukemia
IGROV1 ovarian = system: IGROV1 ovarian
SNB-75 CNS = system: SNB-75 CNS
SN12C renal = system: SN12C renal
UACC-62 melanoma = system: UACC-62 melanoma
KM12 colon = system: KM12 colon
LOX IMVI melanoma = system: LOX IMVI melanoma
A549 NSCLC = system: A549 NSCLC
TK-10 renal = system: TK-10 renal
MALME-3M melanoma = system: MALME-3M melanoma
HT29 colon = system: HT29 colon
SW-620 colon = system: SW-620 colon
CCRF-CEM leukemia = system: CCRF-CEM leukemia
HL-60(TB) leukemia = system: HL-60(TB) leukemia
HCT-15 colon = system: HCT-15 colon
SK-MEL-5 melanoma = system: SK-MEL-5 melanoma
OVCAR-4 ovarian = system: OVCAR-4 ovarian
OVCAR-3 ovarian = system: OVCAR-3 ovarian
K-562 leukemia = system: K-562 leukemia

| Compound | TGI (RPMI-8226 leukemia) | TGI (IGROV1 ovarian) | TGI (SNB-75 CNS) | TGI (SN12C renal) | TGI (UACC-62 melanoma) | TGI (KM12 colon) | TGI (LOX IMVI melanoma) | TGI (A549 NSCLC) | TGI (TK-10 renal) | TGI (MALME-3M melanoma) | TGI (HT29 colon) | TGI (SW-620 colon) | TGI (CCRF-CEM leukemia) | GI50 (HL-60(TB) leukemia) | TGI (HL-60(TB) leukemia) | TGI (HCT-15 colon) | TGI (SK-MEL-5 melanoma) | TGI (OVCAR-4 ovarian) | TGI (OVCAR-3 ovarian) | TGI (K-562 leukemia) |
| --- | --- | --- | --- | --- | --- | --- | --- | --- | --- | --- | --- | --- | --- | --- | --- | --- | --- | --- | --- | --- |
| C[n+]1ccc(Nc2ccc(NC(=O)c3ccc(Nc4cc[n+](C)c5ccc([N+](=O)[O-])cc45)cc3[N+](=O)[O-])cc2)cc1 | > 100 µM | > 100 µM | > 100 µM | > 100 µM | > 90.4 µM and 63.6 µM | > 100 µM | > 100 µM | > 100 µM | > 100 µM | 61.2 µM and 53.9 µM | > 100 µM | > 100 µM | > 100 µM | 4.7 µM and 10.3 µM | > 47.7 µM and 69.9 µM | > 100 µM | 70.4 µM and > 70.4 µM | > 100 µM | 54.6 µM and 54.3 µM | > 77.6 µM |
| Nc1c(C(=O)Nc2ccc(C3=NCCN3)cc2)cccc1C(=O)Nc1ccc(C2=NCCN2)cc1 | > 100 µM | > 100 µM | > 100 µM | > 100 µM | > 100 µM | > 100 µM | > 100 µM | > 100 µM |  | > 100 µM | > 100 µM | > 100 µM | > 100 µM |  | > 100 µM | > 100 µM | > 100 µM | > 100 µM | > 100 µM | > 100 µM |
| Nc1ccc(S(=O)(=O)Nc2ccc(Nc3c4ccccc4nc4ccccc34)cc2)cc1 | 4.06 µM | 19.7 µM | 0.963 µM | 0.628 µM | 3.66 µM | 4.59 µM | 1.51 µM | 0.919 µM | 9.55 µM | 10.8 µM | 5.4 µM | 14.3 µM | > 4.64 µM |  | 0.183 µM | 17.7 µM | 2 µM | 17.1 µM | 4.57 µM | 17 µM |
| Cc1c(Cl)c(S(N)(=O)=O)cc2c1NC=NS2(=O)=O | > 100 µM | > 100 µM | > 100 µM | > 100 µM | > 100 µM | > 100 µM | > 100 µM | > 100 µM | > 100 µM | > 100 µM | > 100 µM | > 100 µM | > 100 µM |  |  | > 100 µM | > 100 µM | > 100 µM | > 100 µM | > 100 µM |
| Cc1cc2sc(C)[n+](CCCOS(=O)(=O)[O-])c2cc1C | > 100 µM | > 100 µM | > 100 µM | > 100 µM | > 100 µM | > 100 µM | > 100 µM | > 100 µM | > 100 µM | > 100 µM | > 100 µM | > 100 µM |  |  | > 100 µM | > 100 µM | > 100 µM | > 100 µM | > 100 µM | > 100 µM |
| COC(=O)c1cc2cc3c(c(O)c2c(=O)o1)O[C@@]1(Oc2c(O)c4c(c(O)c2[C@H]1OC1CC(OC)C(O)C(C)O1)C(=O)C=C(OC)C4=O)[C@H](O)C3 (some centres not stated) | 4.44 µM | 7.17 µM |  | 12.1 µM | 1.78 µM | 9.51 µM |  |  | 17.5 µM |  | > 20.3 µM | > 39.8 µM |  |  | 3.39 µM | > 19.7 µM |  | 2.89 µM | > 23.4 µM | 8.82 µM |
| O=C(NC1C=Nc2ccc([N+](=O)[O-])cc2NC1=O)c1cc(Cl)cc([N+](=O)[O-])c1 (configuration not stated) | > 100 µM | > 100 µM | > 100 µM | > 100 µM | > 100 µM | > 100 µM | > 100 µM | > 100 µM | > 100 µM |  | > 100 µM | > 100 µM | > 100 µM |  | > 100 µM | > 100 µM | > 100 µM | > 100 µM |  | > 100 µM |
| Cc1ccc(N=Nc2ccc(N)cc2C)c(S(N)(=O)=O)c1 | > 100 µM | > 100 µM | > 100 µM | > 100 µM | > 100 µM | > 100 µM | > 100 µM | > 100 µM | > 100 µM | > 100 µM | > 100 µM | > 100 µM | > 100 µM |  | > 100 µM | > 100 µM | > 100 µM | > 100 µM | > 100 µM | > 100 µM |
